Data as given in patent US20100267712A1, “ISOINDOLINE COMPOUNDS FOR THE TREATMENT OF SPINAL MUSCULAR ATROPHY AND OTHER USES” (The United States of America, as represented by the …, priority 2007, published 2010).

Test system: SMN2-linked luciferase-reporter gene construct
Test: SMN Splice Reporter Assay (SMN2-linked luciferase reporter)
Assay type: cell-based
Settings: for EC50: cervical carcinoma cell lines, SMN2 splice luciferase reporter; for Fold Increase: fold-increase of luciferase over baseline reading of transformed cells without any test compound
Description: As previously discussed, SMN1 is the gene deleted in SMA patients; the SMN2 gene remains intact in both SMA and normal patients. Therefore, SMN2 provides a potential means of increasing SMN production in SMA patients and is, thus, a target for developing SMA treatments. SMN2 is identical to SMN1 with the exception of a single base pair change that results in reduced expression of the gene. The reduction is based on the creation of an alternatively spliced RNA that produces an unstable protein carrying a deletion of exon 7. Both full length SMN and exon 7 deleted SMN are produced by the SMN2 gene via alternative RNA splicing, but the major product is the unstable deleted form.
Cervical carcinoma cell lines were transformed with a SMN2-linked luciferase-reporter gene construct. The reporter is designed to detect shifts in the alternative splicing of SMN2 sequences. In particular, the reporter is constructed as a fusion of the alternatively spliced sequences of the SMN2 gene and the luciferase gene. Luciferase sequences are in the correct translational reading frame only when the SMN2 sequences are spliced according to the normal SMN1 mechanism (e.g., splicing to include exon 7), which allows for translation of the stable SMN protein. Compounds were tested in the assay by administering the compound to the cell line and detecting an increase in the luciferase activity. The assay is described in greater detail in Zhang et al., Gene Ther., 8: 1532-8 (2001). Compounds were administered as described in Lunn et al, Chem. & Biol, 11: 1489-1493 (2004).
The results are reported as a fold-increase over a baseline reading of transformed cells without any test compound. The EC50 value also is reported in Table 1 for some exemplary compounds of the invention.

| SMILES | EC50 | Fold Increase |
| --- | --- | --- |
| O=C1c2cc(OC(F)F)ccc2CN1c1ccc2sccc2c1 [Example 121644] | 0.115 µM | 1.801 |
| COc1ccc2c(c1)C(=O)N(c1ccc3nccc(O)c3c1)C2 [Example 121645] | – | 1.093 |
| CCCOc1ccc2c(c1)C(=O)N(c1ccc3c(ccn3C)c1)C2 [Example 121785] | 0.08 µM | 1.29 |
| COc1ccc2c(c1)C(=O)N(c1ccc3c(ccc[n+]3[O-])c1)C2 [Example 121786] | 0.188 µM | 1.498 |
| O=C1c2cc(OC(F)F)ccc2CN1c1ccc2c(ccn2C(F)F)c1 [Example 121787] | – | 1.221 |
| COc1ccc2c(c1)C(=O)N(c1ccc3c(ccn3C(F)F)c1)C2 [Example 121788] | – | 1.19 |
| Cn1ccc2cc(N3Cc4ccc(S(C)(=O)=O)cc4C3=O)ccc21 [Example 121790] | 0.556 µM | 1.336 |
| COc1ccc2c(c1)C(=O)N(c1ccc3ncncc3c1)C2 [Example 121791] | 1.06 µM | 1.448 |
| COc1ccc2c(c1)C(=O)N(c1cc3ccn(C)c3cn1)C2 [Example 121792] | 0.101 µM | 1.384 |
| CCc1ccc2c(c1)C(=O)N(c1ccc3c(ccn3C)c1)C2 [Example 121793] | 0.085 µM | 1.529 |
| COc1ccc2c(c1)C(=O)N(c1ccc3c(c1)NCCN3)C2 [Example 121921] | 0.217 µM | 1.365 |
| CCCCOc1ccc2c(c1)C(=O)N(c1ccc3c(ccn3C)c1)C2 [Example 121922] | 0.225 µM | 1.301 |
| CC(C)Oc1ccc2c(c1)C(=O)N(c1ccc3c(ccn3C)c1)C2 [Example 121923] | – | 1.194 |
| Cn1ccc2cc(N3Cc4ccc(F)cc4C3=O)ccc21 [Example 121925] | 0.193 µM | 1.347 |
| COc1cc2c(cc1F)CN(c1ccc3c(ccn3C)c1)C2=O [Example 121926] | 0.199 µM | 1.533 |
| CC(C)Cc1ccc2c(c1)C(=O)N(c1ccc3c(ccn3C)c1)C2 [Example 121927] | 0.036 µM | 1.323 |
| CCCCc1ccc2c(c1)C(=O)N(c1ccc3c(ccn3C)c1)C2 [Example 121928] | 0.148 µM | 1.384 |
| Cn1ccc2cc(N3Cc4ccc(OC5CCCC5)cc4C3=O)ccc21 [Example 121929] | 0.083 µM | 1.316 |
| Nc1ccc2c(c1)C(=O)N(c1ccc3ccsc3c1)C2 [Example 122036] | 0.347 µM | 1.827 |

| SMILES | EC50 | Fold Increase |
| --- | --- | --- |
| Cn1ccc2cc(N3Cc4ccc(C(F)(F)F)cc4C3=O)ccc21 [Example 122037] | 0.862 µM | 1.406 |
| CN(C)c1ccc2c(c1)C(=O)N(c1ccc3ccsc3c1)C2 [Example 122038] | 0.038 µM | 1.592 |
| COc1ccc2c(c1)C(=O)N(c1ccc3nc(N(C)C)ncc3c1)C2 [Example 122039] | 7.12 µM | 1.459 |
| COc1ccc(-c2ccc3c(c2)C(=O)N(c2ccc4c(ccn4C)c2)C3)cc1 [Example 122040] | – | 1.148 |
| C/C=C(/C)c1ccc2c(c1)C(=O)N(c1ccc3c(ccn3C)c1)C2 [Example 122041] | 0.076 µM | 1.606 |
| Cn1ccc2cc(N3Cc4ccc(-c5cccnc5)cc4C3=O)ccc21 [Example 122042] | 0.728 µM | 1.422 |
| Cn1ccc2cc(N3Cc4ccc(OCC(F)(F)F)cc4C3=O)ccc21 [Example 122043] | 0.54 µM | 1.341 |
| COc1ccc2c(c1)C(=O)N(c1ccc3c(c1)c(Br)cn3C)C2 [Example 122044] | 0.16 µM | 1.383 |
| Cn1ccc2cc(N3Cc4ccc(OC(F)(F)C(F)Cl)cc4C3=O)ccc21 (centres unmarked) [Example 122180] | 0.092 µM | 1.64 |
| Cn1ccc2cc(N3Cc4ccc(-c5cncnc5)cc4C3=O)ccc21 [Example 122181] | – | 1.169 |
| COc1ccc2c(c1)CN(c1ccc3c(ccn3C)c1)C2 [Example 122183] | 0.593 µM | 1.518 |
| COc1ccc2c(c1)C(=O)N(c1ccc3c(c1)c(C)cn3C)C2 [Example 122184] | 0.409 µM | 1.639 |
| COc1ccc2c(c1)C(=O)N(c1ccc3c(c1)CCN3C)C2 [Example 122314] | – | 1.026 |
| COc1ccc(-c2ccc3c(c2)C(=O)N(c2ccc4ccn(C)c4c2)C3)cc1 [Example 122315] | – | 1.091 |
| Cn1ccc2cc(N3Cc4cc(F)ccc4C3=O)ccc21 [Example 122316] | 0.065 µM | 1.401 |
| Cn1ccc2ccc(N3Cc4ccc(-c5cccnc5)cc4C3=O)cc21 [Example 122318] | 0.459 µM | 1.94 |
| CN1CCCc2cc(N3Cc4ccc(OC(F)F)cc4C3=O)ccc21 [Example 122319] | 0.203 µM | 1.97 |
| O=C1c2cc(O)ccc2CN1c1ccc2sccc2c1 [Example 122430] | 0.086 µM | 1.769 |
| Cn1ccc2cc(N3Cc4ccc(OC(F)(F)Br)cc4C3=O)ccc21 [Example 122431] | 0.22 µM | 1.552 |

| SMILES | EC50 | Fold Increase |
| --- | --- | --- |
| COc1ccc2c(c1)C(=O)N(c1ccc3nc(OC)ncc3c1)C2 [Example 122432] | 1.14 µM | 1.32 |
| Cn1ccc2ccc(N3Cc4ccc(-c5cncnc5)cc4C3=O)cc21 [Example 122433] | 1.07 µM | 1.333 |
| COc1ccc2c(c1)C(=O)N(c1ccc3scc(Br)c3c1)C2 [Example 122434] | 0.378 µM | 1.718 |
| COc1ccc2c(c1)C(=O)N(c1ccc3c(c1)N(C)CCN3C)C2 [Example 122436] | 5.95 µM | 1.354 |
| CCCOc1ccc2c(c1)C(=O)N(c1ccc3sccc3c1)C2 [Example 122551] | – | 1.235 |
| CCCCOc1ccc2c(c1)C(=O)N(c1ccc3sccc3c1)C2 [Example 122552] | – | 1.202 |
| CC(C)Oc1ccc2c(c1)C(=O)N(c1ccc3sccc3c1)C2 [Example 122553] | – | 1.082 |
| CCOc1ccc2c(c1)C(=O)N(c1ccc3sccc3c1)C2 [Example 122554] | 0.027 µM | 1.475 |
| Cc1ccc2c(c1)C(=O)N(c1ccc3ccsc3c1)C2 [Example 122555] | 0.087 µM | 1.509 |
| O=C1c2cc(O)ccc2CN1c1ccc2ccsc2c1 [Example 122556] | 0.139 µM | 1.671 |
| O=C1c2cc(Br)ccc2CN1c1ccc2ccsc2c1 [Example 122557] | – | 1.383 |
| O=C1c2cc(Br)ccc2CN1c1ccc2sccc2c1 [Example 122558] | 0.094 µM | 1.469 |
| CCc1ccc2c(c1)C(=O)N(c1ccc3ccsc3c1)C2 [Example 122683] | 0.125 µM | 1.582 |
| CCc1ccc2c(c1)C(=O)N(c1ccc3sccc3c1)C2 [Example 122684] | 0.057 µM | 1.665 |
| CCCc1ccc2c(c1)C(=O)N(c1ccc3sccc3c1)C2 [Example 122819] | 0.035 µM | 1.547 |
| COc1ccc2c(c1)C(=O)N(c1ccc3nccc(N(C)C)c3c1)C2 [Example 122820] | – | 1.066 |
| COc1ccc2c(c1)C(=O)N(c1ccc3cccnc3c1)C2 [Example 122821] | 0.037 µM | 1.401 |
| Cc1cc2cc(N3Cc4ccc(O)cc4C3=O)ccc2n1C [Example 123010] | 0.302 µM | 1.336 |
| COc1ccc2c(c1)C(=O)N(c1ccc3scc(C)c3c1)C2 [Example 123012] | 0.272 µM | 1.773 |
